From publication PMC12561453, “Synthesis and Structure–Activity Relationship Study of 2-(amino)quinazolin-4(3H)-one Derivatives as Potential Inhibitors of Methicillin-Resistant Staphylococcus aureus (MRSA)” (Antibiotics, 2025)
In brackets after ≈: the same amount, converted by molar mass. Like-named read-outs stand apart in the source and are kept apart here.

Tests used:
[1] = test system: S. aureus USA300 JE2; assay: Broth microdilution dose-response, S. aureus USA300 JE2 (MRSA); assay type: cell-based, Staphylococcus aureus; conditions: Staphylococcus aureus, USA300, USA300 JE2, methicillin-resistant; OD600 after 18–24 h; read-out: USA300 MIC50
Excerpt: The antistaphylococcal activities (MIC50) of the synthesized compounds were examined via a previously described broth microdilution method against two S. aureus strains: ATCC25923, a methicillin-sensitive reference strain, and JE2, a methicillin-resistant strain of the USA300 lineage (Figure 2, Table 1).
Staphylococcus aureus USA300, a methicillin-resistant strain, was obtained from the Nebraska Transposon Mutant Library. Staphylococcus aureus ATCC25923, a pan-drug-susceptible strain, was purchased from the American Type Culture Collection (ATCC) (Manassas, VA, USA). S. aureus strains were grown in Cation-Adjusted Mueller–Hinton broth (CAMHB) (Difco) at 37 °C. Bacterial strain stocks were stored in vials with 25% glycerol at −80 °C. For each experiment, overnight cultures were prepared by inoculating a frozen bacterial strain stock in 10 mL of CAMHB medium and incubating at 37 °C in a shaking incubator (180 rpm). For the preliminary screen and dose–response experiments, 100 µL of overnight culture was inoculated into 10 mL of fresh CAMHB and incubated for 3 h at 37 °C and 180 rpm.
Antibiotic susceptibility assay was tested according to modified Clinical and Laboratory Standards Institute (CLSI) laboratory guidelines for broth microdilution assays. S. aureus was cultured in CAMHB, and bacterial cells were prepared with an OD600 of 0.005. DRC plates were prepared by adding 40 µL of bacterial suspension to each well, where 10 µL of each compound had been dispensed for […] of two-fold serial dilutions starting at […]. After incubation of the plates at 37 °C for 18–24 h with 5% CO2, the growth of S. aureus was detected by measuring the OD600nm using an Ensight (Revvity) spectrometer (Revvity, Waltham, MA, USA).
Figure 2 In vitro antibacterial activities of 2-(amino)quinazolin-4(3H)-one derivatives. S. aureus ATCC25923 (blue) and USA300 JE (orange) strains were incubated with serial dilutions of 2-(amino)quinazolin-4(3H)-one derivatives (0.19–100 µM) for 18–24 h. The dose–responses were observed by measuring OD600nm. The plots were drawn from each group of strains with nonlinear curve fits.

[2] = test system: HepG2 cells; assay: In vitro cytotoxicity, HepG2 viability (resazurin); assay type: cell-based, human; conditions: HepG2 cells, 24 h, resazurin, read-out: HepG2 IC50
Method: The in vitro cytotoxicity of the compounds was evaluated by measuring the viability of HepG2 cells, a human liver cell line, following treatment in a dose–response manner, as previously described. […] The efficacy window was calculated as the ratio of IC50 in HepG2 cells to MIC50 against JE2.
To test cytotoxicity with compounds, the human liver cell line HepG2 (ATCC #HB-8065) was used for the assay. HepG2 was cultured in DMEM with 10% fetal bovine serum (FBS) in a 96-well microplate at 37 °C and 5% CO2. HepG2 cells were seeded at a final density of 5 × 10^4 cells/well, and DMEM-containing diluted compounds were added and incubated on the plates at 37 °C in 5% CO2 for 24 h. After that, resazurin (final concentration, 0.1 mg/mL) was added to each well and incubated on the plates at 37 °C in 5% CO2 for 2 h. To detect the fluorescence at 530 nm excitation and 590 nm emission, an Ensight multimode plate reader was used (Revvity, Waltham, MA, USA).

[3] = molecular target: hERG (Homo sapiens, UniProt Q12809); assay: hERG binding assay
hERG, sequence (Q12809 whole entry): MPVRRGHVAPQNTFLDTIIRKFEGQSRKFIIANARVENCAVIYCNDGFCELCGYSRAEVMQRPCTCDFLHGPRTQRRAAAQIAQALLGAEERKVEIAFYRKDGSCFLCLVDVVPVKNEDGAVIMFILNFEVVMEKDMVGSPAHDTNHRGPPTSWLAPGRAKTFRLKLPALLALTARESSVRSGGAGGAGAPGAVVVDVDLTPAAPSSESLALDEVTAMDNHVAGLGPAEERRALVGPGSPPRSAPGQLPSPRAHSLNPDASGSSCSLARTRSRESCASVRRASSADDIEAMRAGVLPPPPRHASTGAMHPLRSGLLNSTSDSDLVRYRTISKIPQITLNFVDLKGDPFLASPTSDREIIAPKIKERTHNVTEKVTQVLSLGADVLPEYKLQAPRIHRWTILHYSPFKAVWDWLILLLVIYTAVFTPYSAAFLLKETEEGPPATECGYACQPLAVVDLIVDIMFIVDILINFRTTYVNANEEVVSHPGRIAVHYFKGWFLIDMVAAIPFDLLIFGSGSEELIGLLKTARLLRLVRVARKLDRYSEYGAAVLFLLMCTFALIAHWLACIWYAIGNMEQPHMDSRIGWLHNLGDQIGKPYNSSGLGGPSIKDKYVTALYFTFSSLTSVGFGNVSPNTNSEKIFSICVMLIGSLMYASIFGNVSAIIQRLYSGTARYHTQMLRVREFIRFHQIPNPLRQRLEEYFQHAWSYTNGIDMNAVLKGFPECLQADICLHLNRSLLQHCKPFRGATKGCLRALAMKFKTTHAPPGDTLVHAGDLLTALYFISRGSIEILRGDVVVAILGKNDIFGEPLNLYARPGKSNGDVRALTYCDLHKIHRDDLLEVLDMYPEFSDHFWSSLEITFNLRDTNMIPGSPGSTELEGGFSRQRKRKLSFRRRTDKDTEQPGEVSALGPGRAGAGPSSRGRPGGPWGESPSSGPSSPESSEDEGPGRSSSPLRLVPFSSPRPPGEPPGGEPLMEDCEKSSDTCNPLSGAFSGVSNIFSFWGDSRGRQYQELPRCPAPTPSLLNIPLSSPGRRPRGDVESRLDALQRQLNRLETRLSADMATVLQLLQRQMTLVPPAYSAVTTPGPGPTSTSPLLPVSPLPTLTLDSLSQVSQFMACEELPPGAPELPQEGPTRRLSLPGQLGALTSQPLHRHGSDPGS
Method: (§1) Table S1. Results of hERG binding assay and cytotoxicity of 6l and 6y
(§2) Compound hERGa CytotoxicityVERO HFL-1 L929 NIH 3T3 CHO-K1
(§3) a % inhibition at 10 μM concentrations. b IC50 values in various mammalian cell lines. […]

[4] = Cytotoxicity in HFL-1 cells; assay type: cell-based; conditions: human, HFL-1 cells (embryonic lung cell line)
Method: as §1, §2, §3

[5] = Cytotoxicity in L929 cells; assay type: cell-based; conditions: mouse, L929 cells (NCTC clone 929, fibroblast cell line)
Method: as §1, §2, §3

[6] = Cytotoxicity in NIH 3T3 cells; assay type: cell-based; conditions: mouse, NIH 3T3 cells (embryonic fibroblast cell line)
Method: as §1, §2, §3

[7] = in vitro; assay type: cell-based; conditions: Chinese hamster
Method: as §1, §2, §3

[8] = Microsomal stability, human; assay type: in vitro ADME; conditions: human microsomes
Method: (§4) Table S2. Result of microsomal stability, plasma protein binding rate, and CYP inhibition of 6l and 6y
(§5) Compound MSa PPBrat human rat human 1A2 2C9 2C19 2D6 3A4
(§6) a % of remaining after 30 min. b plasma protein binding rate (%) at 5 μM concentrations. c % of CYP
(§7) inhibition in human liver microsomes at 10 μM concentrations. […]

[9] = Plasma protein binding, rat; assay type: in vitro ADME; conditions: read-out: PPB rat, plasma protein binding rate (converted)
Method: as §4, §5, §6, §7

[10] = Plasma protein binding, human; assay type: in vitro ADME; conditions: read-out: PPB human, plasma protein binding rate (converted)
Method: as §4, §5, §6, §7

[11] = molecular target: T1, CYP1A2 (Homo sapiens, UniProt P05177); assay: CYP inhibition in human liver microsomes, 1A2; assay type: in vitro ADME
T1 construct: from tissue; host or cells: human liver microsomes
T1 sequence (P05177 1-516): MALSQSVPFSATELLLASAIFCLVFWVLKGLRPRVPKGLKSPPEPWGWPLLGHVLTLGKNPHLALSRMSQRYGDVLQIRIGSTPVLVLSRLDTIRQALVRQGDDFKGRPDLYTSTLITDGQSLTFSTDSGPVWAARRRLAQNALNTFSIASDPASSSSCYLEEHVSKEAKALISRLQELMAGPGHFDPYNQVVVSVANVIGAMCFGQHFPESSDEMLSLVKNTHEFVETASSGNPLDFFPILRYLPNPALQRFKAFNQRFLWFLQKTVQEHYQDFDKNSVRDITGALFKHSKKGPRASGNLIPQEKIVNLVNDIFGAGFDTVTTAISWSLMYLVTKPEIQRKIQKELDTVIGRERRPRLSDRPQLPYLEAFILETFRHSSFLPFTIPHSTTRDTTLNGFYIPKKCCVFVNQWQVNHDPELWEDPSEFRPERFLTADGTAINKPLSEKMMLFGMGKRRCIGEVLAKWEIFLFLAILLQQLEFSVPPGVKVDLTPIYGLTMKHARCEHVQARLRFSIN
Method: as §4, §5, §6, §7

[12] = molecular target: T2, CYP2C19 (Homo sapiens, UniProt P33261); assay: CYP inhibition in human liver microsomes, 2C19; assay type: in vitro ADME
T2 construct: from tissue; host or cells: human liver microsomes
T2 sequence (P33261 whole entry): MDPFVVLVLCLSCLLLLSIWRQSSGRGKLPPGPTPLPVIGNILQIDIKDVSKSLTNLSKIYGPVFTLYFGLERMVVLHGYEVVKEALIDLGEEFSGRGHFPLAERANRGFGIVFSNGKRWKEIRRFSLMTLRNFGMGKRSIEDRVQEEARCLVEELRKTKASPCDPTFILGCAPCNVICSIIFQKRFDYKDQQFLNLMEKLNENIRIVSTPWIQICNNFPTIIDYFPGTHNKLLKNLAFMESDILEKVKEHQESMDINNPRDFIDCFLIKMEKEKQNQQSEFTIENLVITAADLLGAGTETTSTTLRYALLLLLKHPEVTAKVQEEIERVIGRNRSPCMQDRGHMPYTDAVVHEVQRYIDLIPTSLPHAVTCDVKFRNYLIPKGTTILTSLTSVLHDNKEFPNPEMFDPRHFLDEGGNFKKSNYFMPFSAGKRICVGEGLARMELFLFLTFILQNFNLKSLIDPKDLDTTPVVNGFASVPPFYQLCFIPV
Method: as §4, §5, §6, §7

[13] = molecular target: T3, CYP2D6 (Homo sapiens, UniProt P10635); assay: CYP inhibition in human liver microsomes, 2D6; assay type: in vitro ADME
T3 construct: from tissue; host or cells: human liver microsomes
T3 sequence (P10635 whole entry): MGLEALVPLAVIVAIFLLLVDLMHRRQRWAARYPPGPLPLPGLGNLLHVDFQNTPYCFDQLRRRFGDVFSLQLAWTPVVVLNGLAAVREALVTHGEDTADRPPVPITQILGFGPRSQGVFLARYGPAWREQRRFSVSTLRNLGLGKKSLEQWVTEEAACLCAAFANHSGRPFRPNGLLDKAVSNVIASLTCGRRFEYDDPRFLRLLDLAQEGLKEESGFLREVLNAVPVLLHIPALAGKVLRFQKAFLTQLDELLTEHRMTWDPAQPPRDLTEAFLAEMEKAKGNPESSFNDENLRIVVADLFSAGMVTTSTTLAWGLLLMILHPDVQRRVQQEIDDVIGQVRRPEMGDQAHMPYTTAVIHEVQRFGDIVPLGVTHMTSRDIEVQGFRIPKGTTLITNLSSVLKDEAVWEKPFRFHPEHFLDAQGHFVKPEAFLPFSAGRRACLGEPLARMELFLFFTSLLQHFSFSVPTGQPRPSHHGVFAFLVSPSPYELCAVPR
Method: as §4, §5, §6, §7

[14] = molecular target: T4, CYP3A4 (Homo sapiens, UniProt P08684); assay: CYP inhibition in human liver microsomes, 3A4; assay type: in vitro ADME
T4 construct: from tissue; host or cells: human liver microsomes
T4 sequence (P08684 whole entry): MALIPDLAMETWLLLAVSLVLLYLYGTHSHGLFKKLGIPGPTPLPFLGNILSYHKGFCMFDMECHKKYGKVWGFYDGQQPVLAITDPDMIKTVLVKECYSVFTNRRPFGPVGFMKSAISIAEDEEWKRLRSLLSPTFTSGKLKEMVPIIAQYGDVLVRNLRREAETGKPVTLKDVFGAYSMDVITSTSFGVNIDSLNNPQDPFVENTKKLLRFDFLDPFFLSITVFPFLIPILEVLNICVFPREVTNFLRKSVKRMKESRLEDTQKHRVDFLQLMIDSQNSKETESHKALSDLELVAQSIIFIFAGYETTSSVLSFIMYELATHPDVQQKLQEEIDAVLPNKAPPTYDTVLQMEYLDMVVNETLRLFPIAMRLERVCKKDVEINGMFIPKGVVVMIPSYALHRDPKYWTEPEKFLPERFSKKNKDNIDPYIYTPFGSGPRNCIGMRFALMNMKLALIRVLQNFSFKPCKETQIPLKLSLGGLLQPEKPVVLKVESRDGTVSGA
Method: as §4, §5, §6, §7

## O=c1[nH]c(Nc2cc(Cl)cc(Cl)c2)nc2cc(Cl)ccc12 [6l, 7-Chloro-2-((3,5-dichlorophenyl)amino)quinazolin-4(3H)-one]
[1]
  MIC50: 0.6 µM (≈ 0.204 µg/mL)
[2]
  IC50: 62.2 µM
[2]; Homo sapiens, HepG2, 24 h
  IC50: 62 µM
[3]
  inhibition at 10 µM: 37.8%
[4]
  IC50: 7.5 µM
[5]
  IC50: 31.4 µM
[6]
  IC50: > 100 µM
[7]
  IC50: 11 µM
[8]
  MS human, % of remaining after 30 min: 99.3%
[9]
  fraction unbound at 5 μM: 0.001
[10]
  fraction unbound at 5 μM: 0.002
[11]
  inhibition at 10 µM: 15.1%
[12]
  inhibition at 10 µM: < 1%
[13]
  inhibition at 10 µM: 20.1%
[14]
  inhibition at 10 µM: 32.2%

## O=c1[nH]c(NCc2ccc(F)c(F)c2)nc2cc(Cl)ccc12 [6y, 7-Chloro-2-((3,4-difluorobenzyl)amino)quinazolin-4(3H)-one]
[1]
  MIC50: 0.02 µM (≈ 0.00643 µg/mL)
[2]; Homo sapiens, HepG2, 24 h
  IC50: 20.2 µM
[3]
  inhibition at 10 µM: 11.4%
[4]
  IC50: 50.7 µM
[5]
  IC50: 79 µM
[6]
  IC50: 62 µM
[7]
  IC50: 51.6 µM
[8]
  MS human, % of remaining after 30 min: 42.9%
[9]
  fraction unbound at 5 μM: 0.005
[10]
  fraction unbound at 5 μM: 0.002
[11]
  inhibition at 10 µM: 92.5%
[12]
  inhibition at 10 µM: 93.6%
[13]
  inhibition at 10 µM: 90.1%
[14]
  inhibition at 10 µM: 91.4%
